# According to patent US12269803B2, “Krüppel-like factor 15 (KLF15) small molecule agonists in kidney disease” (United States Government as represented by the Department …, priority 2020, dated 2025):
# pEC50: −log10 of the molar value.
# Tests used:
# KLF15 = KLF15 activity in ADR-treated cultured human podocytes; type: cell-based; settings: nonpermissive conditions 37° C., vs DMSO
# human podocytes [1] = test: Podocyte survival (Renilla, cell viability) after LPS treatment; type: cell-based; settings: LPS-treated human podocytes
# Procedure: (§1) FIG. 10A-D show representative data illustrating the dose-response curve and EC50 (FIG. 10A), KLF15 reporter activity (FIG. 10B), and Renilla activity (cell viability) (FIG. 10C) in LPS-treated HP, and the therapeutic efficacy in abrogating albuminuria (biomarker of kidney disease) in LPS-treated mice (FIG. 10D).
# (§2) After the synthesis of these novel analogues, a primary screening assay was conducted.
# human podocytes [2] = test: KLF15 and synaptopodin expression and actin stress fibers in LPS-treated human podocytes; type: cell-based; settings: LPS conditions, vs DMSO-treated podocytes
# KLF15 reporter = KLF15 reporter activity in LPS-treated human podocytes (podocyte stress model); type: cell-based
# Procedure: as §1, §2
# human podocytes [3] = test: Cell viability (renilla activity, MTT assay) in ADR-treated cultured human podocytes; type: cell-based; settings: vs K-9, K-15, DEX, DMSO
# LPS-treated mice = test: LPS-induced albuminuria murine model; type: in vivo; settings: vs DMSO
# Procedure: Referring to FIG. 10D, C57BL/6 mice were treated with lipopolysaccharide (LPS) at dose of 10 μg/g in two divided doses 24 hours apart intraperitoneally to induce podocyte injury and albuminuria.
# [4] = tested on: Db/db mice on the FVB/N background; test: db/db murine model of progressive diabetic kidney disease; type: in vivo; settings: subcutaneous minipump, 0.85 μg/day for 14 days
# Text: Db/db mice on the FVB/N background were utilized as a murine model of progressive diabetic kidney disease (DKD), where there is significant podocyte injury and glomerulosclerosis.
# KLF15 promoter [5] = test: KLF15 promoter activity in human podocytes, KLF15 agonist combined with dexamethasone; type: cell-based; settings: K-7 combined with DEX, dose-response curves
# [6] = tested on: KLF15 promoter mutated at the GR binding site; test: GR-mutant KLF15 reporter assay; type: cell-based, human
# KLF15 promoter [7] = test: KLF15 reporter human podocyte assay (HTS, dose-response, primary screening); type: cell-based; settings: for pEC50: dose-response curve, human podocytes, luciferase/renilla
# Procedure: A stable reporter assay directed at KLF15 promoter region (4.3 kb region) was generated in human podocytes, a fragment of human KLF15 promoter upstream of the start codon, by amplifying and subcloning it into the firefly luciferase reporter plasmid (co-transfection with renilla to serve as internal controls). KLF15 promoter activity is measured as a ratio of luciferase to renilla activity. Using this reporter cell line, a cell-based HTS assay was developed using recently reported cell-seeding methodology specific to cultured podocytes (16).
SMILES,KLF15 activity (KLF15),"genes involved in IL-17R and NF-κB signaling, chemokine/inflammatory signaling and fibrosis pathways (RNA-seq enrichment) (IL-17R signaling; K-7 vs DMSO in LPS-treated podocytes)","transcripts downstream of IL-17R signaling (CSF2, CSF3, CXCL2, CXCL3, CCL2, IL1β) (IL-17R signaling; cultured human podocytes, LPS treatment)",podocyte survival after LPS treatment (human podocytes [1]),KLF15 expression (human podocytes [2]),actin stress fiber formation (human podocytes [2]),synaptopodin expression (human podocytes [2]),KLF15 reporter activity after LPS treatment (KLF15 reporter),cell viability (renilla activity and MTT assay) (human podocytes [3]),"albuminuria (LPS-treated mice; 5 mg/kg every 12 hours, LPS-proteinuric mice)","albuminuria (LPS-treated mice; C57BL/6 mice, LPS 10 μg/g, subcutaneous minipump 3.5 μg/day for 48 hours)",podocyte effacement ([4]; PAS staining and TEM),glomerular basement membrane (GBM) thickness ([4]; quantified with ImageJ),glomerular volume ([4]; quantified with ImageJ),DEX dose required to induce KLF15 reporter activity (KLF15 promoter [5]),KLF15 reporter activity with KLF15 promoter mutated at the GR binding site [6],"maximal KLF15 reporter activity (KLF15 promoter [7]; dose escalation, at similar concentrations to DEX)",pEC50 (KLF15 promoter [7])
CSc1ccc(NC(=O)Nc2cc(C)ccn2)cc1 [Compound K-7],restored KLF15 activity,significant decrease,suppressed,improved,restored,restored,restored,improved KLF15 reporter activity,significantly improved,significant improvement in albuminuria,significantly reduced albuminuria,attenuated podocyte effacement,reduced,reduced glomerular volume,reduced the DEX dose required to induce KLF15 reporter activity,induce KLF15 reporter activity independent of GR signaling,higher maximal KLF15 reporter activity,~7.92
Nc1ccccc1-n1nc2ccc3ccccc3c2n1 [Compound K-9],restored KLF15 activity,,,,,,,,,,,,,,,induce KLF15 reporter activity independent of GR signaling,,~7.12
O=C(Nc1ccc2ccccc2c1)c1ccc(Cl)cc1Cl [Compound K-15],restored KLF15 activity,,,,,,,,,,,,,,,induce KLF15 reporter activity independent of GR signaling,,~7.96
